How the values were obtained:
S. aureus = assay: Colonisation of skin explant by exogenous S. aureus during 24 h after adhesion step; format: cell-based, Staphylococcus aureus; conditions: systemic treatment, in words
Procedure: Il est par ailleurs possible d'observer la colonisation de l'explant par le germe exogène (S. aureus) après l'étape d'adhésion pendant 24 h. […] L'effet inverse est observé avec le traitement par le TNF-α, cytokine pro-inflammatoire, qui après avoir entraîné une forte chute de l'adhésion de S. aureus (Cf.III.4.2) ne permet pas une limitation de la croissance du germe pathogène sur l'explant et ceci au dépend du germe commensal S. epidermidis.
La figure 12 annexée illustre la comparaison de la colonisation d'une souche contaminante, S. aureus, avec celle d'une souche commensale, S. epidermis.

hBD-3 = assay: Immunohistochemistry of hBD-3 peptide in gingival explant, systemic treatment; format: cell-based, human; conditions: 30 µg/ml, 5 h, qualitative
Procedure: Les explants gingivaux humains de taille variable et petite sont rincés dix fois dans du PBS sans antibiotiques puis mis en culture sur une grille afin d'éviter leur immersion totale, posés côté derme.
Les échantillons inclus dans la résine Tissue Tek® sont coupés à froid (température de la chambre à -25°C et la température du porte-objet à - 28°C) à l'aide d'un cryostat (Leica CM 3050s, Nussloch). Les cryocoupes d'une épaisseur de 5 µm sont récupérées sur des lames porte-objet prétraitées, puis mises à sécher environ 2 h à température ambiante et stockées à -20°C pour une utilisation ultérieure. Avant de réaliser l'immuno-marquage, les coupes sont fixées à l'acétone à -20°C pendant 10 min, séchées et conservées à -20°C. Lors d'une première étape, les coupes sont hydratées puis incubées avec les anticorps primaires dirigés contre les peptides d'intérêt dilués dans du PBS. Les anticorps primaires utilisés sont les suivants : • Goat Anti-human BD-2 (500-P161G, Peprotech Inc) dilué au 1/50^e • Rabbit Anti-human defensin-3 (AB3478, Chemicon international) dilué au 1/1000^e • Rabbit Anti-human LL37 (G-075-06, Phoenix Pharmaceuticals Inc) dilué au 1/50^e
Pour révéler le complexe Antigène-Anticorps, le kit DAKO LSAB® (DAKO Corporation) est utilisé selon les recommandations du fournisseur. […]

Substance: laurate de butylglucoside [αβ-LBG brut]
- multiplication / croissance du germe pathogène (S. aureus) sur l'explant (S. aureus): ralentit la multiplication du germe pathogène
- production du peptide hBD-3 dans les couches supérieures de l'épithélium gingival (hBD-3): induction de la production du peptide hBD-3

— EP1978972B1, “USE OF ALKYLGLUCOSIDE ESTERS AS BETA-DEFENSIN INDUCERS” (Pierre Fabre Dermo-Cosmétique, priority 2006, dated 2007)
